Data published in US4335249A, “Herbicidal diphenyl ethers, sulfides, sulfoxides and sulfones” (Rohm and Haas Company, priority 1976, dated 1982).

Legend:
Format in all cases: in vivo
[1] = test system: tomato (Lycopersicon esculentum); assay: Postemergence herbicidal activity, tomato; details: Post, 2 lb/A; for pest or weed control at 2241.7 g/ha: Solanum lycopersicum, post-emergence, 336 h
Description: (§1) Using the procedure described below, compounds of the invention are evaluated for control of several of the following plant species:
(§2) The following est procedure is employed. Seeds of selected crops and weeds are planted in soil in flats. For preemergence tests, the flats are treated with the test compound immediately after the planting. For postemergence tests, the seeds are allowed to germinate, and after two weeks the flats are treated with the test compound. The compound to be evaluated is dissolved in acetone, diluted with water, and sprayed over the flats using a carrier volume equivalent to 50 gallons per acre at the rate of application (pounds per acre, lb/A.) specified in the tables. About two weeks after the application of the test compound, the state of growth of the plants is observed and the phytotoxic effect of the compound is evaluated. Tables III and IV give the average percent control achieved by test compounds in terms of the percent of the plants which are killed by the compounds.

wild oats (Avena fatua) [2] = assay: Postemergence herbicidal activity, wild oats; details: Post, 2 lb/A; for pest or weed control at 2241.7 g/ha: Avena fatua, post-emergence, 336 h, read-out: % control, Wild oat
Description: as §1, §2

[3] = test system: cocklebur (Xanthium pensylvanicum); assay: Postemergence herbicidal activity, cocklebur; details: 2 lb/A; for pest or weed control at 2241.7 g/ha: Xanthium strumarium, post-emergence, 336 h
Description: as §1, §2

marigold (Tagetes spp.) [4] = assay: Postemergence herbicidal activity, marigold; details: 2 lb/A; for pest or weed control at 2241.7 g/ha: post-emergence, 336 h
Description: as §1, §2

foxtail (Setaria spp.) [5] = assay: Postemergence herbicidal activity, foxtail; details: Setaria, post-emergence, 336 h, Post, 2 lb/A
Description: as §1, §2

[6] = test system: downybrome (Bromus tectorum); assay: Postemergence herbicidal activity, downybrome; details: Post, 2 lb/A; for pest or weed control at 2241.7 g/ha: Bromus tectorum, post-emergence, 336 h
Description: as §1, §2

[7] = test system: morningglory (Ipomoca spp.); assay: Postemergence herbicidal activity, morningglory; details: 2 lb/A; for pest or weed control at 2241.7 g/ha: Ipomoea, post-emergence, 336 h
Description: as §1, §2

[8] = test system: yellow nutsedge (Cyperus esculentus); assay: Postemergence herbicidal activity, yellow nutsedge; details: Cyperus, post-emergence, 336 h, 2 lb/A
Description: as §1, §2

[9] = test system: yellow nutsedge (Cyperus esculentus); assay: Preemergence herbicidal activity, yellow nutsedge; details: Cyperus, pre-emergence, 336 h, 2 lb/A
Description: as §1, §2

[10] = test system: downybrome (Bromus tectorum); assay: Preemergence herbicidal activity, downybrome; details: Pre, 2 lb/A; for pest or weed control at 2241.7 g/ha: Bromus tectorum, pre-emergence, 336 h
Description: as §1, §2

[11] = test system: cocklebur (Xanthium pensylvanicum); assay: Preemergence herbicidal activity, cocklebur; details: Xanthium strumarium, pre-emergence, 336 h, 2 lb/A
Description: as §1, §2

foxtail (Setaria spp.) [12] = assay: Preemergence herbicidal activity, foxtail; details: Setaria, pre-emergence, 336 h; Pre, 2 lb/A
Description: as §1, §2

wild oats (Avena fatua) [13] = assay: Preemergence herbicidal activity, wild oats; details: Pre, 2 lb/A; for pest or weed control at 2241.7 g/ha: Avena fatua, pre-emergence, 336 h, read-out: % control, Wild oat
Description: as §1, §2

[14] = test system: velvetleaf (Abutilon theophrasti); assay: Postemergence herbicidal activity, velvetleaf; details: 2 lb/A; for pest or weed control at 2241.7 g/ha: Abutilon theophrasti, post-emergence, 336 h
Description: as §1
(§3) The following est procedure is employed. Seeds of selected crops and weeds are planted in soil in flats. For preemergence tests, the flats are treated with the test compound immediately after the planting. For postemergence tests, the seeds are allowed to germinate, and after two weeks the flats are treated with the test compound. The compound to be evaluated is dissolved in acetone, diluted with water, and sprayed over the flats using a carrier volume equivalent to 50 gallons per acre at the rate of application (pounds per acre, lb/A.) specified in the tables.

[15] = test system: morningglory (Ipomoca spp.); assay: Preemergence herbicidal activity, morningglory; details: 2 lb/A; for pest or weed control at 2241.7 g/ha: Ipomoea, pre-emergence, 336 h
Description: as §1, §2

[16] = test system: barnyardgrass (Echinochloa crusgalli); assay: Postemergence herbicidal activity, barnyardgrass; details: Echinochloa crus-galli, post-emergence, 336 h; Post, 2 lb/A
Description: as §1, §3

[17] = test system: tomato (Lycopersicon esculentum); assay: Preemergence herbicidal activity, tomato; details: Solanum lycopersicum, pre-emergence, 336 h; Pre, 2 lb/A
Description: as §1, §2

[18] = test system: velvetleaf (Abutilon theophrasti); assay: Preemergence herbicidal activity, velvetleaf; details: Abutilon theophrasti, pre-emergence, 336 h; Pre, 2 lb/A
Description: as §1, §2

[19] = test system: barnyardgrass (Echinochloa crusgalli); assay: Preemergence herbicidal activity, barnyardgrass; details: Echinochloa crus-galli, pre-emergence, 336 h; Pre, 2 lb/A
Description: as §1, §3

marigold (Tagetes spp.) [20] = assay: Preemergence herbicidal activity, marigold; details: pre-emergence, 336 h, 2 lb/A
Description: as §1, §2

SMILES	pest or weed control at 2241.7 g/ha [1] [%]	pest or weed control at 2241.7 g/ha (wild oats (Avena fatua) [2]) [%]	pest or weed control at 2241.7 g/ha [3] [%]	pest or weed control at 2241.7 g/ha (marigold (Tagetes spp.) [4]) [%]	pest or weed control at 2241.7 g/ha (foxtail (Setaria spp.) [5]) [%]	pest or weed control at 2241.7 g/ha [6] [%]	pest or weed control at 2241.7 g/ha [7] [%]	pest or weed control at 2241.7 g/ha [8] [%]	pest or weed control at 2241.7 g/ha [9] [%]	pest or weed control at 2241.7 g/ha [10] [%]	pest or weed control at 2241.7 g/ha [11] [%]	pest or weed control at 2241.7 g/ha (foxtail (Setaria spp.) [12]) [%]	pest or weed control at 2241.7 g/ha (wild oats (Avena fatua) [13]) [%]	pest or weed control at 2241.7 g/ha [14] [%]	pest or weed control at 2241.7 g/ha [15] [%]	pest or weed control at 2241.7 g/ha [16] [%]	pest or weed control at 2241.7 g/ha [17] [%]	pest or weed control at 2241.7 g/ha [18] [%]	pest or weed control at 2241.7 g/ha [19] [%]	pest or weed control at 2241.7 g/ha (marigold (Tagetes spp.) [20]) [%]	further results
CCOC(=O)C(C)Oc1cccc(Oc2ccc(C(F)(F)F)cc2Cl)c1 (stereo not shown) [Example 2]	100	50	90	90	50	40	100	0	0	0	0	100	20	100	0	60	100	100	30	90	
CCOC(=O)C(C)Oc1ccc(Sc2ccc(C(F)(F)F)cc2Cl)cc1 (stereo not shown) [Example 3, Ethyl 2-[4-(2-Chloro-4-trifluoromethylphenylthio)phenoxy] propionate]	70	99	20	50	100	90	50	66	0	40	0	100	30	70	0	70	0	0	95	0	
COC(=O)C(C)Oc1ccc(Oc2ccc(C(F)(F)F)cc2Cl)cc1 (stereo not shown) [Example 4, Methyl 2-[4-(2-chloro-4-trifluoromethylphenoxy)phenoxy] propionate]	60	100	100	30	100	99	20	0	0	0	0	100	40	80	0	100	0	20	100	0	
CCN(CC)C(=O)C(C)Oc1ccc(Oc2ccc(C(F)(F)F)cc2Cl)cc1 (stereo not shown) [Example 5]	80	20	0	0	90	30	20	0	0	0	0	99	0	20	0	20	0	0	60	0	
CC(Oc1ccc(Oc2ccc(C(F)(F)F)cc2Cl)cc1)C(=O)O (stereo not shown) [Example 6, 2-[4-(2-Chloro-4-trifluoromethylphenoxy)phenoxy] propionic acid]					95			0	0		0	100				100	0	0	100	0	% control, Tomato [1]: 80%; % control, Wild oat (wild oats (Avena fatua) [2]): 95%; % control, Cocklebur ([3]; Post): 50%; % control, Marigold (marigold (Tagetes spp.) [4]; Post): 20%; % control, Downybrome [6]: 30%; % control, Morningglory ([7]; Post): 40%; % control, Downybrome [10]: 40%; % control, Wild oat (wild oats (Avena fatua) [13]): 20%; % control, Velvetleaf ([14]; Post): 20%; % control, Morningglory ([15]; Pre): 0%
CCOC(=O)C(C)Oc1ccc(Oc2ccc(C(F)(F)F)cc2Cl)cc1Cl (stereo not shown) [Example 7]	80	20	80	20	40	0	100	0	0	0	0	90	0	80	0	10	0	0	0	0	
CCOC(=O)C(C)Oc1ccc(Oc2ccc(C(F)(F)F)cc2Cl)cc1OC (stereo not shown) [Example 8, Ethyl 2-[4-(2-chloro-4-trifluoromethylphenoxy)-2-methoxyphenoxy] propionate]	0	0	0	0	0	0	0	0	0	0	0	99	0	0	0	0	0	0	0	0	
CCOC(=O)C(C)Oc1ccc(Oc2ccc(C(F)(F)F)cc2Cl)cc1[N+](=O)[O-] (stereo not shown) [Example 9]	90	0	40	50	0	0	0	0	0	0	0	0	0	20	0	40	0	0	0	0	
